Results on six molecules are retold here after US20260002132A1, “METHOD FOR PRODUCING RENAL COLLECTING DUCT CELLS AND PELVIC EPITHELIAL CELLS” (Kyoto University, priority 2022, published 2026).

The test system of assay [1] is ureteric bud cells derived from Tet-On-ELF5-1231A3 iPS cells. It is filed as cell-based, human. The following applies: for effect on AQP2 expression in combination with IBMX: factor added together with IBMX. The procedure: Ureteric bud organoids on Day 6 were prepared from the Tet-On-ELF5-1231A3 iPS cells using the method previously described (WO2021/066076). In a 1.5 mL tube, 10 ureteric bud organoids were collected and washed twice with 500 μL PBS. 100 μL Accutase was added thereto, and the mixture was incubated for 3 minutes at 37° C., 5% CO2. The ureteric bud organoids were completely transformed into single cells by pipetting, and 900 μL DMEM/10% PBS was added thereto to count cells.
To a 24-well plate (6-well, 12-well, 48-well or 96-well plate, or 6-well, 12-well, or 24-well transwell plate may also be used), the necessary amount of suspension was collected to achieve 0.25 to 1.0×10^5 cells/cm^2, and centrifuged at 300 G for 5 minutes. The cell count was preferably 1×10^5 cells/cm^2. After removing the supernatant, cells were resuspended in a medium comprising DMEM/F12 GlutaMAX+B-27 Supplement minus vitamin A having 10% FBS, 1 μM A83-01, and 1 μM IWR-1 (renal collecting duct progenitor cell-induction medium) added thereto, to which 0.125 μg/cm^2 iMatrix-511 silk and 10 μM Y-27632 were added, and the suspension was adjusted and seeded so that each well contains 500 μL of the suspension. 0.1 μM TTNPB may be further added the medium.
The medium may further comprise 0.1 μM TTNPB, 100 nM desmopressin (dDAVP), 10 nM aldosterone, and 100 nM K252a, and preferably a medium comprising 3 agents of TTNPB, dDAVP, and aldosterone is suitable. Thereafter, the medium was replaced once every 2 days, and the induction into the principal cells was completed on Day 4.
The cultured cells were washed twice with PBS, and then, fixed with 4% PFA at 4° C. for 20 minutes. The cells were washed twice with PBS, and then, blocked using 2% normal donkey serum (MERCK)/PBT (PBS/0.25% Triton X-100, Nacalai tesque, Inc.) (blocking solution) at room temperature for 1 hour. Each primary antibody was diluted with the blocking solution at a rate of 1:200, and left to stand with samples at 4° C. for 24 hours. After washing twice with 0.25% PBT, each secondary antibody was diluted with the blocking solution at a rate of 1:500, and left to stand with samples at room temperature for 2 hours. The cells were observed using a microscope such as BZX-700 (Keyence Corporation).

Assay [2] has as its system renal collecting duct principal cells. As to the kind of experiment: Apical-basal polarity of AQP2 in renal collecting duct principal cells, transwell culture. It is filed as cell-based, human. The conditions noted are these: 100 nM dDAVP added to the medium in the lower chamber. The method, then:
Ureteric bud organoids on Day 6 were prepared from the Tet-On-ELF5-1231A3 iPS cells using the method previously described (WO2021/066076). In a 1.5 mL tube, 10 ureteric bud organoids were collected and washed twice with 500 μL PBS. 100 μL Accutase was added thereto, and the mixture was incubated for 3 minutes at 37° C., 5% CO2. The ureteric bud organoids were completely transformed into single cells by pipetting, and 900 μL […] was added thereto to count cells. To evaluate the apical-basal polarity, the cells were seeded on a Transwell 12-well plate (Corning Inc., 3460). Specifically, the necessary amount of suspension was collected to achieve 0.5 to 2×10^5 cells/cm^2, and centrifuged at 300 G for 5 minutes. The cell count was preferably 1×10^5 cells/cm^2. After removing the supernatant, cells were resuspended in the renal collecting duct progenitor cell-induction medium, to which 0.125 μg/cm^2 iMatrix-511 silk and 10 μM Y-27632 were added, and the suspension was adjusted and seeded in the upper chamber so that each well contains 300 μL of the suspension. 0.1 μM TTNPB may be further added the medium. 2 or 3 days later, the medium in the upper chamber was removed, and 300 μL renal collecting duct principal cell-induction medium was placed in the lower chamber. […]

For assay [3], the system named is renal collecting duct principal cell-containing organoid. Kind of assay: Functional evaluation of renal collecting duct principal cell-containing organoids (water uptake, cystoid structure). The conditions noted are these: organoid on Day 6 of the induction. It is filed as cell-based, human. The procedure:
Ureteric bud organoids on Day 6 were prepared from the Tet-On-ELF5-1231A3 iPS cells using the method previously described (WO2021/066076). The medium was removed and replaced with the renal collecting duct progenitor cell-induction medium of 100 μL/well. 0.1 μM TTNPB may be further added the medium.
3 days later, the medium was replaced with the renal collecting duct principal cell-induction medium of 100 μL/well. The medium may further comprise 0.1 μM TTNPB, 100 nM dDAVP, 10 nM aldosterone, and 100 nM K252a, and preferably a medium comprising 3 agents of TTNPB, dDAVP, and aldosterone is suitable. The medium was replaced once every 2 days, and the preparation of principal cell-containing organoids was completed on Day 6.
The functional evaluation tests were performed on the renal collecting duct principal cell-containing organoids. For the renal collecting duct principal cell-containing organoid on Day 6 of the induction, the medium was replaced with a renal collecting duct principal cell-induction medium, to which 1 μM dDAVP, or with 1 μM dDAVP and 10 μM tolvaptan were added.

The test system of assay [4] is mouse renal collecting duct principal cell lines. The following applies: previously reported (Ando F. et al., Nat Commun. 2018); cited from earlier work.
The mark [5] stands for this setting: factor added to principal cell-induction medium excluding IBMX, planar culture.
Where [6] appears, read: 400 μM IBMX with 4 μM doxycycline in renal collecting duct progenitor cell-induction medium.

Read-outs that look alike come from different tables or passages of the source.

As for `C[C@]12CCC(=O)C=C1CC[C@@H]1[C@@H]2[C@@H](O)C[C@]2(C=O)[C@@H](C(=O)CO)CC[C@@H]12` [ALD, aldosterone], in assay [1] (setting [5]), the AQP2 expression entry is given as “the AQP2 expression was not promoted”. Moreover, in assay [1] (planar culture), the “effect on AQP2 expression in combination with IBMX” value (from here on “effect on AQP2 expression”) was “functioned additively with the addition of IBMX”.

Regarding `NC(=O)CC[C@@H]1NC(=O)[C@H](Cc2ccccc2)NC(=O)[C@H](Cc2ccc(O)cc2)NC(=O)[C@@H](N)CSSC[C@@H](C(=O)N2CCC[C@H]2C(=O)N[C@@H](CCCN=C(N)N)C(=O)NCC(N)=O)NC(=O)[C@H](CC(N)=O)NC1=O` [AVP, arginine vasopressin], the AQP2 expression entry in assay [1] (setting [5]) is listed as “the AQP2 expression was not promoted”. Besides, the “effect on AQP2 expression” value in assay [1] (planar culture) is on record as “functioned additively with the addition of IBMX”.

In the case of `CC(C)Cn1c(=O)n(C)c(=O)c2[nH]cnc21` [IBMX, 3-isobutyl-1-methylxanthine], in assay [1] (setting [6]), the AQP2 expression result was “early expressed AQP2” and the AVPR2 expression entry is “expressed AVPR2”. The AQP2 expression entry in assay [1] (IBMX added with dDAVP, or with either of AVP and dDAVP, ALD and K252a, planar culture) is “the AQP2 expression was promoted”. Also, in assay [1] (IBMX at concentrations up to 400 μM, with 4 μM doxycycline), the “number of AQP2-expressing cells” value is given as “concentration-dependently increased”.

Regarding `COC(=O)[C@@]1(O)C[C@H]2O[C@]1(C)n1c3ccccc3c3c4c(c5c6ccccc6n2c5c31)C(=O)NC4` [K252a], the AQP2 expression result in assay [1] (setting [5]) is recorded as “the AQP2 expression was not promoted”. Moreover, the “effect on AQP2 expression” value in assay [1] (planar culture) is given as “functioned additively with the addition of IBMX”.

`NC(=O)CC[C@@H]1NC(=O)[C@H](Cc2ccccc2)NC(=O)[C@H](Cc2ccc(O)cc2)NC(=O)CCSSC[C@@H](C(=O)N2CCC[C@H]2C(=O)N[C@H](CCCN=C(N)N)C(=O)NCC(N)=O)NC(=O)[C@H](CC(N)=O)NC1=O` [dDAVP, 1-desamino-8-D-arginine vasopressin]: in assay [1] (planar culture), the “effect on AQP2 expression” value was “functioned additively with the addition of IBMX”. The “polarization of AQP2 expression” value in assay [2] is “increase in polarization of AQP2 expression to the contralateral side”. Moreover, in assay [3] (1 μM dDAVP), the “water uptake and cystoid structure formation” value is “water uptake was promoted from the next day, and a cystoid structure was formed”. Besides, the “AQP2 expression and apical polarization” value in assay [4] was “promotes AQP2 expression and causes apical polarization”.

Take `Cc1ccccc1C(=O)Nc1ccc(C(=O)N2CCCC(O)c3cc(Cl)ccc32)c(C)c1` (stereo not drawn) [tolvaptan]: the “formation of a cystoid structure” value in assay [3] (10 μM tolvaptan together with 1 μM dDAVP) is reported as “the formation of a cystoid structure was suppressed”.
